Laboratory results as given in patent US20180163250A1, “Screening Broths Comprising Esculatin Compounds for the Detection of Specific Microorganisms” (Neogen Corporation, priority 2016, published 2018).
Counter-ions that a name gives are not always drawn.

Columns and labels:
Type in all cases: cell-based
[1] = system: Listeria monocytogenes, NCTC5348 and NCTC10527; assay: Pre- and post-incubation detection of enzymatic activity in Listeria express broth (LAB589)
Method: 3,4-cyclohexenoesculatin glucoside, was dissolved at 200 mg/ml in 50:50 mixture of dimethylformamide and water. The mixture was then added to pre-dispensed 10 ml volume samples of Listeria express broth (LAB589 from Lab M limited) as 25 μL additions from the prepared stock solutions. Additional broth samples without added chromogen were prepared and inoculated at the same time as the chromogen containing samples. The stock solution was then stored at −20° C. for 24 hours. A 0.5 Macfarlane standard suspension of Listeria monocytogenes, NCTC5348 and NCTC10527, was prepared from 18-24 hour cultures grown in tryptic soy broth (LAB004 from Lab M Limited) at 37° C. These were diluted so as to inoculate each sample with 100-1000 or 10,000-100,000 cfu. Samples were then incubated at 37° C. for 24 hours. The samples were then observed, and bacterial growth confirmed. 50 μL of a 250/mg/ml stock solution of ferric ammonium citrate was then added to each sample. Samples without 3,4-cyclohexenoesculatin glucoside chromogen were then supplemented with 25 μL additions from the stored 3,4-cyclohexenoesculatin glucoside stock solution and observed at ambient temperature for 30 minutes.

[2] = system: methicillin resistant staphylococcus aureus strains; assay: Growth and initial color change in MRSA screening broth (LAB588) containing the substrate; details: for Initial color change indicating the presence of MRSA: LAB588 broth with cefoxitin, 100-1000 cfu
Method: (§1) CHE-phosphate, and 3,4-cyclohexenoesculatin diphosphate were dissolved at 200 mg/ml in a 50:50 mixture of dimethylformamide and water. 5-bromo-4-chloroindoxyl phosphate was dissolved at 200 mg/ml in a 50:50 mixture of ethanol and water. The mixtures of compounds were added individually to a MRSA broth (LAB588; Lab M limited) pre-dispensed to 10 ml volumes, after supplementation with cefoxitin selective agent, as 25 μL additions from the prepared stock solutions.
(§2) A 0.5 Macfarlane standard suspension of methicillin resistant staphylococcus aureus strains were prepared from 18-24 h cultures grown in tryptic soy broth (LAB004; Lab M Limited) at 37° C. These were diluted and added to the MRSA broth samples in an amount sufficient to inoculate each sample with 100-1000 colony forming units (cfu). Target concentration was achieved by diluting a culture to a target level and inoculating sets of tubes at different inoculum dilutions so as to achieve the target range. The actual quantity inoculated was confirmed by plating 50 μl of the dilution onto Tryptone soy agar (LAB011) and incubating the plates for 18-24 h at 37° C. and counting the resulting colonies. This information was used to determine which tubes had been inoculated within the target dosing range.
(§3) The broth is designed to selectively indicate a positive presence of MRSA by a yellow color, or a presumptive positive presence of MRSA by an orange color (Table 1). To the CHE-phosphate and 3,4-cyclohexenoesculatin diphosphate was added 50 μL of a 250/mg/ml stock solution of Ferric ammonium citrate and samples were allowed to incubate at ambient temperature for 5 minutes.

[3] = system: phosphatase activity of methicillin resistant staphylococcus aureus; assay: Blackening after addition of ferric ammonium citrate (free CHE, phosphatase activity) in MRSA broth; details: for blackening after the addition of ferric ammonium citrate indicating the presence of free 3,4-cyclohexenoesculatin: 5 minutes at ambient temperature after FAC; for Color or masking reaction (blackening reaction, dark precipitate): MRSA broth, after ferric ammonium citrate
Method: as §1, §2, §3

[4] = system: Listeria monocytogenes NCTC 10257; assay: Masking of fluorogenic reaction by CHE glucoside and ferric ammonium citrate in broth; details: uv light
Method: 4-methylumbelliferyl-β-D glucopyranoside (MC633 from Sigma Aldrich) was dissolved in water at 100 mg/ml and 25 μL of this stock solution added to pre-dispensed 10 mL volumes of Lab589 (Lab M Limited) and Lab049 (Brain heart infusion broth Lab M limited). Listeria monocytogenes NCTC 10257 were prepared from 18-24 hour cultures grown in tryptic soy broth (LAB004 from Lab M Limited) at 37° C. These were diluted so as to inoculate each sample with 100-1000 cfu. Samples were then incubated at 37° C. for 24 hours. Samples were then observed and confirmed for bacterial growth, and further observed under an ultra violet light for fluorescence. The samples were then supplemented with 3,4-cyclohexenoesculatin glucoside (Biosynth C9218), from a 200 mg/ml in 50:50 mixture of dimethylformamide and water. 50 μL of a 250/mg/ml stock solution of ferric ammonium citrate was added to each sample, observing visually for blackening and under ultra violet light for fluorescence masking after 15 minutes incubation at ambient. Table 5 provides that 3,4-cyclohexenoesculatin glucoside can be used as an additional masking reagent to confirm fluorogenic based broth systems.

[5] = L. monocytogenes NCTC 5348 100 cfu, glucoside added post incubation
[6] = L. monocytogenes NCTC 5348 100 cfu, glucoside added pre incubation
[7] = L. monocytogenes NCTC 5348 10000 cfu, glucoside added post incubation
[8] = L. monocytogenes NCTC 5348 10000 cfu, glucoside added pre incubation
[9] = L. monocytogenes NCTC 10527 100 cfu, glucoside added post incubation
[10] = L. monocytogenes NCTC 10527 100 cfu, glucoside added pre incubation
[11] = L. monocytogenes NCTC 10527 10000 cfu, glucoside added post incubation
[12] = L. monocytogenes NCTC 10527 10000 cfu, glucoside added pre incubation

O=c1oc2cc(O)c(O[C@@H]3O[C@H](CO)[C@@H](O)[C@H](O)[C@H]3O)cc2c2c1CCCC2 [3,4-cyclohexenoesculatin glucoside]
Color t = 0 minutes post iron addition [1, 5]: yellow | Color t = 15 minutes post iron addition [1, 5]: Black | Color t = 0 minutes post iron addition [1, 6]: Black | Color t = 15 minutes post iron addition [1, 6]: Black | Color t = 0 minutes post iron addition [1, 7]: yellow | Color t = 15 minutes post iron addition [1, 7]: Black | Color t = 0 minutes post iron addition [1, 8]: Black | Color t = 15 minutes post iron addition [1, 8]: Black | Color t = 0 minutes post iron addition [1, 9]: yellow | Color t = 15 minutes post iron addition [1, 9]: Black | Color t = 0 minutes post iron addition [1, 10]: Black | Color t = 15 minutes post iron addition [1, 10]: Black | Color t = 0 minutes post iron addition [1, 11]: yellow | Color t = 15 minutes post iron addition [1, 11]: Black | Color t = 0 minutes post iron addition [1, 12]: Black | Color t = 15 minutes post iron addition [1, 12]: Black | Time to strong black reaction ([1]; glucoside added post incubation): about 15 minutes | Time to strong black reaction on the addition of ferric ammonium citrate ([1]; samples incubated with the glucoside): instantly

O=c1oc2cc(OP(=O)(O)O)c(OP(=O)(O)O)cc2c2c1CCCC2 [Diphosphate, 3,4-cyclohexenoesculatin diphosphate tetra-potassium salt]
Initial color change indicating the presence of MRSA ([2]; MRSA 3): Growth (yellow) | Initial color change indicating the presence of MRSA ([2]; MRSA 15): Growth (yellow) | Initial color change indicating the presence of MRSA ([2]; MRSA 15A (clinical isolate)): Growth (yellow) | Initial color change indicating the presence of MRSA ([2]; MRSA 15B (clinical isolate)): Growth (yellow) | Initial color change indicating the presence of MRSA ([2]; MRSA 15C (clinical isolate)): Growth (yellow) | Initial color change indicating the presence of MRSA ([2]; MRSA 16A (clinical isolate)): Growth (yellow) | Initial color change indicating the presence of MRSA ([2]; MRSA 16B (clinical isolate)): Growth (yellow) | Initial color change indicating the presence of MRSA ([2]; MRSA 16C (clinical isolate)): Growth (yellow) | Inhibition of the growth of MRSA ([2]; MRSA broth LAB588, summary of Table 1): not inhibitory | Initial color change indicating the presence of MRSA ([2]; S. aureus NCTC 12493): Growth (yellow) | blackening after the addition of ferric ammonium citrate indicating the presence of free 3,4-cyclohexenoesculatin ([3]; MRSA 3): No change | blackening after the addition of ferric ammonium citrate indicating the presence of free 3,4-cyclohexenoesculatin ([3]; MRSA 15): No change | blackening after the addition of ferric ammonium citrate indicating the presence of free 3,4-cyclohexenoesculatin ([3]; MRSA 15A (clinical isolate)): No change | blackening after the addition of ferric ammonium citrate indicating the presence of free 3,4-cyclohexenoesculatin ([3]; MRSA 15B (clinical isolate)): No change | blackening after the addition of ferric ammonium citrate indicating the presence of free 3,4-cyclohexenoesculatin ([3]; MRSA 15 C (clinical isolate)): No change | blackening after the addition of ferric ammonium citrate indicating the presence of free 3,4-cyclohexenoesculatin ([3]; MRSA 16A (clinical isolate)): No change | blackening after the addition of ferric ammonium citrate indicating the presence of free 3,4-cyclohexenoesculatin ([3]; MRSA 16B (clinical isolate)): No change | blackening after the addition of ferric ammonium citrate indicating the presence of free 3,4-cyclohexenoesculatin ([3]; MRSA 16 C (clinical isolate)): No change | Color or masking reaction (blackening reaction, dark precipitate) [3]: does not produce the same dark precipitate | blackening after the addition of ferric ammonium citrate indicating the presence of free 3,4-cyclohexenoesculatin ([3]; S. aureus NCTC 12493): No change

Cc1cc(=O)oc2cc(O[C@@H]3O[C@H](CO)[C@@H](O)[C@H](O)[C@H]3O)ccc12 [4-methylumbelliferyl-β-D glucopyranoside]
Appearance T = 15 minutes post iron addition ([4]; LAB049 broth): fluorescent under uv light | Appearance t = 0 minutes post iron addition ([4]; LAB049 broth): fluorescent under uv light | Appearance T = 15 minutes post iron addition ([4]; LAb589 broth): fluorescent under uv light | Appearance t = 0 minutes post iron addition ([4]; LAb589 broth): fluorescent under uv light

O=P(O)(O)Oc1c[nH]c2ccc(Br)c(Cl)c12 [Indoxyl phosphate, 5-bromo-4-chloroindoxyl phosphate, reference compound]
Initial color change indicating the presence of MRSA ([2]; MRSA 3): Growth (orange) | Initial color change indicating the presence of MRSA ([2]; MRSA 15): Growth (orange) | Initial color change indicating the presence of MRSA ([2]; MRSA 15A (clinical isolate)): Growth (orange) | Initial color change indicating the presence of MRSA ([2]; MRSA 15B (clinical isolate)): Growth (orange) | Initial color change indicating the presence of MRSA ([2]; MRSA 15C (clinical isolate)): Growth (orange) | Initial color change indicating the presence of MRSA ([2]; MRSA 16A (clinical isolate)): Growth (orange) | Initial color change indicating the presence of MRSA ([2]; MRSA 16B (clinical isolate)): Growth (orange) | Initial color change indicating the presence of MRSA ([2]; MRSA 16C (clinical isolate)): Growth (orange) | Initial color change indicating the presence of MRSA ([2]; S. aureus NCTC 12493): Growth (orange) | Color or masking reaction (blackening reaction, dark precipitate) [3]: no detectable color or masking reaction
